These results are taken from ChEMBL document CHEMBL1130121, “Chromeno[3,4-c]pyridin-5-ones: selective human dopamine D4 receptor antagonists as potential antipsychotic agents” (J Med Chem, 1997).

Where only a bound is given, the exact number is not on record here.

The target of experiment [1] is T1, Adrenergic receptor alpha-1 (Rattus norvegicus, UniProt P15823+P23944+P43140).
T1 sequence (P15823 whole entry): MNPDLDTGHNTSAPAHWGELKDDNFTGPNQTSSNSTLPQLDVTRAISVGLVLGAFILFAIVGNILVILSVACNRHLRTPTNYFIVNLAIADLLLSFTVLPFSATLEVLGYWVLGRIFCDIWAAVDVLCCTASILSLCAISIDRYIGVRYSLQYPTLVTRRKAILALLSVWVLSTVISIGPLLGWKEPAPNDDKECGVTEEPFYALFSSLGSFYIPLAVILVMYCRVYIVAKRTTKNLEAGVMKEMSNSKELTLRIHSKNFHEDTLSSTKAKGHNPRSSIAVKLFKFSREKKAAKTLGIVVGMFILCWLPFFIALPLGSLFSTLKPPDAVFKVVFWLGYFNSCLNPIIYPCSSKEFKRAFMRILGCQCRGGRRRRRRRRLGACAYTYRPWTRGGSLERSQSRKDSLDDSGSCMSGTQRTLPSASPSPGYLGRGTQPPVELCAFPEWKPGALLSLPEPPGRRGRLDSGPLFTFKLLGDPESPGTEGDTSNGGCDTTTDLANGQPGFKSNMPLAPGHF
T1 sequence (P23944 whole entry): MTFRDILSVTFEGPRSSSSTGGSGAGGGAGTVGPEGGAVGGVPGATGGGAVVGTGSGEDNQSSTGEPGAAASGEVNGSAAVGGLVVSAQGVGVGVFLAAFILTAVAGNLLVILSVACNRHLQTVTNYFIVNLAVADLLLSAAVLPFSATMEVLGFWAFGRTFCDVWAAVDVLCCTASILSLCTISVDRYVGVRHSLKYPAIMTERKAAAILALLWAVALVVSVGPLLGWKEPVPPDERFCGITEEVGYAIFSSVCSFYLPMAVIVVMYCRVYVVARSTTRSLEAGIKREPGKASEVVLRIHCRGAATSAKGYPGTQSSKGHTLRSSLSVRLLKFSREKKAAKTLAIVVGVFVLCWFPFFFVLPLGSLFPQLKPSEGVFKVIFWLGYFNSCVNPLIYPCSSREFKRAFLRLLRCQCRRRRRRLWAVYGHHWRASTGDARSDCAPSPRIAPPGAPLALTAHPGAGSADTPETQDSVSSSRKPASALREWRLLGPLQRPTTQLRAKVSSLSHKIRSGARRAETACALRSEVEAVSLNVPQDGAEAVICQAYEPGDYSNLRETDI
T1 sequence (P43140 whole entry): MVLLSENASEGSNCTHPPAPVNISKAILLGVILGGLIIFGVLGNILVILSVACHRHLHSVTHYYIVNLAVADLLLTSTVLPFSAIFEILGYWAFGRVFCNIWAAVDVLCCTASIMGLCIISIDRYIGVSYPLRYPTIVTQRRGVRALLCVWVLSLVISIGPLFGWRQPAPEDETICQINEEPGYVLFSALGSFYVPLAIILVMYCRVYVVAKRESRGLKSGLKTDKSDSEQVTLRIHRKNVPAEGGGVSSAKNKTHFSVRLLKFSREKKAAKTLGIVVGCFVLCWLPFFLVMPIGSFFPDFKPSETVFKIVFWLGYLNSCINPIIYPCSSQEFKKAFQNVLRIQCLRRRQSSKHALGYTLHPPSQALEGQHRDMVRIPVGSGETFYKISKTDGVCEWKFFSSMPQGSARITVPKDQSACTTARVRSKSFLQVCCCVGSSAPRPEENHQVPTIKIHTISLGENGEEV
The experiment can be described thus: Binding affinity against rat brain Alpha-1 adrenergic receptor.

Experiment [2] addresses T2, Adrenergic receptor alpha-2 (Rattus norvegicus, UniProt P22086+P19328+P22909).
T2 sequence (P22086 whole entry): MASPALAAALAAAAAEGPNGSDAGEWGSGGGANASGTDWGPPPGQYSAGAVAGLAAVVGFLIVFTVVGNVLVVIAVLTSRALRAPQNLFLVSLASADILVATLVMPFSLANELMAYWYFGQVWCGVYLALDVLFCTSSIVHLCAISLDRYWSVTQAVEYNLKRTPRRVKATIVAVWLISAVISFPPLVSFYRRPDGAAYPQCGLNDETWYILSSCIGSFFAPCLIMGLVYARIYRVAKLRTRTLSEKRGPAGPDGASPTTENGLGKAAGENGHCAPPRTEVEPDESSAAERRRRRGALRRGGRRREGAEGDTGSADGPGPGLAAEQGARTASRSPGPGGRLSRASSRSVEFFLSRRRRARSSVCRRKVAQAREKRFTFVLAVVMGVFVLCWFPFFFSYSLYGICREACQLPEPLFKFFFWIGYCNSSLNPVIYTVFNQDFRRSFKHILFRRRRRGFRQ
T2 sequence (P19328 whole entry): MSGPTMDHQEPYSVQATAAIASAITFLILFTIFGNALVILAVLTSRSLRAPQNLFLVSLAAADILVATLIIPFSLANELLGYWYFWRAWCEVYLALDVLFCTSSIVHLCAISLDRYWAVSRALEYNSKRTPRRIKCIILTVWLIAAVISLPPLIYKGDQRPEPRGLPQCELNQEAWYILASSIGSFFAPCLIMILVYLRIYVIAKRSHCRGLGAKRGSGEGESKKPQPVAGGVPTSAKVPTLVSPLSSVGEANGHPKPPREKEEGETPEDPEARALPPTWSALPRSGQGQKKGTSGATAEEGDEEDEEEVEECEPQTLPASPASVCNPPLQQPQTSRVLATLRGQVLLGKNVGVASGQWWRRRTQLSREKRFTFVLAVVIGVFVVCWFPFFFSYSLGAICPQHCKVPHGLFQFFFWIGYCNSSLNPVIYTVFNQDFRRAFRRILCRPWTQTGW
T2 sequence (P22909 whole entry): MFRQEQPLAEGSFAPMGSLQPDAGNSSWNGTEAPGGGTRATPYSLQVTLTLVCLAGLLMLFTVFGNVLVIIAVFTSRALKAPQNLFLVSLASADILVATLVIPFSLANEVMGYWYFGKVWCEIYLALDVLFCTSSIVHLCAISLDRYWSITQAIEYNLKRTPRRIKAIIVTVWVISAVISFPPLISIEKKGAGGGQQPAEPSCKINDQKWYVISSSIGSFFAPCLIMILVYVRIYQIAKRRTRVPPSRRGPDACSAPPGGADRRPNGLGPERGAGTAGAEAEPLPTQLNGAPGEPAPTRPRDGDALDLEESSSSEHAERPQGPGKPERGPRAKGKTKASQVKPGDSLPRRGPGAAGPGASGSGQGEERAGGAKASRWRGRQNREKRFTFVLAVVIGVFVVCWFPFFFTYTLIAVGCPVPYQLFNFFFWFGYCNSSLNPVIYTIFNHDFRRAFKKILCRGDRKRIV
The experiment can be described thus: Binding affinity against rat brain Alpha-2 adrenergic receptor.

The target of experiment [3] is T3, 5-hydroxytryptamine receptor 1A (Rattus norvegicus, UniProt P19327).
T3 sequence (P19327 whole entry): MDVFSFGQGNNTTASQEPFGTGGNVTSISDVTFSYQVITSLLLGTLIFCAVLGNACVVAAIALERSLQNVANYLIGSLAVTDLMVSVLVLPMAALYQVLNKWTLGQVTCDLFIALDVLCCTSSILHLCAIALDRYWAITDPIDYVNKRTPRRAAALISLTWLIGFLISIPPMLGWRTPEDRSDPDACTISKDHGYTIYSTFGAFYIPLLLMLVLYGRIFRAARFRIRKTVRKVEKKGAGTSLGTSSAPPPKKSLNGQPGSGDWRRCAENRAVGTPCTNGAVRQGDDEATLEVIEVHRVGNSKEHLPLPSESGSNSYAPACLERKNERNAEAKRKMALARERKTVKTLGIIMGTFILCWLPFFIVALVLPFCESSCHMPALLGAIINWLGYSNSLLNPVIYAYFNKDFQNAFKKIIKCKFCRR
Kind of experiment: Binding affinity against rat brain 5-hydroxytryptamine 1A receptor.

Experiment [4] deals with 5-hydroxytryptamine receptor 2A (Rattus norvegicus, UniProt P14842). Kind of experiment: Binding affinity against rat brain 5-hydroxytryptamine 2A receptor.
Experiment [5] addresses T4, D(4) dopamine receptor (Homo sapiens) (UniProt P21917).
T4 sequence (whole entry): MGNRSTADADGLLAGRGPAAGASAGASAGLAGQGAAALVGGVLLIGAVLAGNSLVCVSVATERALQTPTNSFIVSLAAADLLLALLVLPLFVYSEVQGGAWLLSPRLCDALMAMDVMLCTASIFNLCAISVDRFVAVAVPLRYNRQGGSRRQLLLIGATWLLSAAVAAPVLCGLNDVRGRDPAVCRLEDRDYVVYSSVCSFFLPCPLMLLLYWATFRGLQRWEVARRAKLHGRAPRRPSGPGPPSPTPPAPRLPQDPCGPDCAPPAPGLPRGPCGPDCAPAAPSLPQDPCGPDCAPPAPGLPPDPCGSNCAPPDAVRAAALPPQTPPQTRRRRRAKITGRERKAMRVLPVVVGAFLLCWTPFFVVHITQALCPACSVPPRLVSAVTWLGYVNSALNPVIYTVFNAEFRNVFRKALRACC
The experiment can be described thus: Inhibition of mitogenic [3H]thymidine uptake in CHO 10001 cells expressing Dopamine receptor D4. It counts as functional, cell-based.

In experiment [6] the target is D(3) dopamine receptor (Homo sapiens, UniProt P35462). Kind of experiment: biochemical.
Description: Ability to displace [3H]spiperone from human cloned Dopamine receptor D3 expressed in CHO K-1 cells in vitro.
In experiment [7] the target is T5, D(4) dopamine receptor (Homo sapiens, UniProt P21917).
T5 sequence (P21917 whole entry): T4 sequence (whole entry)
The experiment can be described thus: biochemical.
Description: Ability to displace [3H]spiperone from cloned human Dopamine receptor D4 expressed in CHO K-1 cells in vitro

Chain of D(3) dopamine receptor (P35462 whole entry): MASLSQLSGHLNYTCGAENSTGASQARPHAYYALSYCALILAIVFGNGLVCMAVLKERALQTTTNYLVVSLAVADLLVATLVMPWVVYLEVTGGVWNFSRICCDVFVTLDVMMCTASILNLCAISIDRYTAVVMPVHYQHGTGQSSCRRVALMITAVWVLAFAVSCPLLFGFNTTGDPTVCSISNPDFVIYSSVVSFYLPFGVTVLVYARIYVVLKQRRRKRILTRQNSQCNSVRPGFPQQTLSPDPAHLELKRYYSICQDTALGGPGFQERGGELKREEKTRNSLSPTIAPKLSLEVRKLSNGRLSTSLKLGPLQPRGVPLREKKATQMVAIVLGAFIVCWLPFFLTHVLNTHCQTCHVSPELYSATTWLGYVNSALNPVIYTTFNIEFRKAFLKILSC
Chain of 5-hydroxytryptamine receptor 2A (P14842 whole entry): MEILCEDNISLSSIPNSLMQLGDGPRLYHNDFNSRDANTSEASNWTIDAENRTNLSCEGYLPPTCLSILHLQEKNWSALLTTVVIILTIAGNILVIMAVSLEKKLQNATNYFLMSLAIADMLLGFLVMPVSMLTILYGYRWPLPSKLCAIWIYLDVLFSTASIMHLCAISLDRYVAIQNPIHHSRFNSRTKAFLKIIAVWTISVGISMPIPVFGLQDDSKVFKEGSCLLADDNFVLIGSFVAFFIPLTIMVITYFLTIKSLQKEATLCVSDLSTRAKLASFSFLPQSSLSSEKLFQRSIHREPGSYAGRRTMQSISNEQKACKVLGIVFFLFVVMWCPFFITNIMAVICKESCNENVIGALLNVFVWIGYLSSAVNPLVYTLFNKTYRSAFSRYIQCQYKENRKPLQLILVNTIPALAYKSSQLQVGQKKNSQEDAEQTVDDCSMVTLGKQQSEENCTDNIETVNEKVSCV

Consider `Cc1ccc2c3c(c(=O)oc2c1)CN(Cc1ccccc1)CC3`, for which the inhibition constant Ki in experiment [1], in experiment [2], in experiment [3] and in experiment [4] was greater than 700 nM throughout. In addition, the Intrinsic activity in experiment [5] was 12.4%.
Turning to `COc1ccc2c3c(c(=O)oc2c1)CN(Cc1ccc([N+](=O)[O-])cc1)CC3`, in experiment [6], the inhibitory constant (Ki) is greater than 3000 nM. In addition, the Intrinsic activity in experiment [5] was 25.2%.
In turn, `COc1ccc2c3c(c(=O)oc2c1)CCN(Cc1ccccc1)C3` came in with a Ki in experiment [7] greater than 3300 nM.
Molecule `COc1ccc2c3c(c(=O)oc2c1)CN(C(=O)c1ccccc1)CC3` gave a Ki in experiment [7] of 420 nM. This counts as sub-micromolar.
`Cc1ccc2c3c(c(=O)oc2c1)CN(Cc1ccc(Cl)cc1)CC3` came in with a Ki in experiment [7] of 11 nM.
The same measure, in the same setting: next, `Cc1cc(O)c2c3c(c(=O)oc2c1)CN(Cc1ccccc1)CC3`: 145 nM.
Consider `COc1ccc2c3c(c(=O)oc2c1)CN(Cc1ccc(C)cc1)CC3`, for which, in experiment [5], the Intrinsic activity was found to be 10%.
`Cc1ccc2c3c(c(=O)oc2c1)CN(Cc1ccc(F)cc1)CC3`: the Ki in experiment [6] worked out at 2210 nM; in experiment [7], 7.5 nM. Moreover, the Intrinsic activity in experiment [5] was determined as 0%.
In turn, `COc1ccc2c3c(c(=O)oc2c1)CN(Cc1cccc(Cl)c1)CC3` gave an Intrinsic activity in experiment [5] of 30.7%. In addition, the Ki in experiment [7] was 17 nM.
Take `O=c1oc2cc(O)ccc2c2c1CN(Cc1ccc(Cl)cc1)CC2`: the Ki in experiment [6] was 317 nM; in experiment [7] it was 2.4 nM. Moreover, in experiment [5], the Intrinsic activity is 23.2%.
Taken in the same sequence, the figures for `COc1ccc2c3c(c(=O)oc2c1)CN(Cc1ccc(Cl)cc1)CC3` were 2780 nM, 8.7 nM and 26.8%.
Regarding `COc1cc2oc(=O)c3c(c2cc1OC)CCN(Cc1ccc(Cl)cc1)C3`, the Ki in experiment [6] was greater than 3000 nM. In experiment [5], the Intrinsic activity amounted to 21.2%.
`COc1ccc2c3c(c(=O)oc2c1)CN(c1ccccc1)CC3`: the Ki in experiment [7] was greater than 3300 nM.
Regarding `COc1ccc2c3c(c(=O)oc2c1)CN(Cc1ccc(F)cc1)CC3`, the inhibition constant (Ki) stood at 548 nM in experiment [6] and 4.3 nM in experiment [7]. Moreover, the Intrinsic activity in experiment [5] is 35.2%.
In the case of `COc1ccc2c3c(c(=O)oc2c1OC)CN(Cc1ccccc1)CC3`, the Ki worked out at 1300 nM in experiment [6] and 16 nM in experiment [7].
In the case of `COc1ccc2c3c(c(=O)oc2c1)CN(Cc1ccc(C(F)(F)F)cc1)CC3`, in experiment [5], the Intrinsic activity was determined as 0%.
For `COc1ccc2c3c(c(=O)oc2c1)CN(CCc1ccccc1)CC3`, in experiment [7], the Ki came to 7.9 nM.
Molecule `COc1ccc2c3c(c(=O)oc2c1)CN(Cc1ccccc1)CC3` showed an Intrinsic activity in experiment [5] of 23.2%.
